Source: ChEMBL document CHEMBL1201862, “PubChem BioAssay data set” (2004)
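Where inhibition never reached the appropriate level, the endpoint shown equals the highest concentration tested. Otherwise, values were interpolated linearly from a five-concentration, 48-hour dose response in 96-well plates. GI50 = concentration required for 50% inhibition of growth.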 Calls of active or inactive are those of the source. No stated cut-off is given here; in the data, active = GI50 up to about 1.1 µM and inactive = higher.

How the values were obtained:
Experiment in all cases: DTP human tumour cell line panel, 48 h
786-0 = system: 786-0
A549 = system: A549
ACHN = system: ACHN
CAKI-1 = system: CAKI-1
CCRF-CEM = system: CCRF-CEM
COLO 205 = system: COLO 205
HL-60 = system: HL-60
HOP-62 = system: HOP-62
IGROV-1 = system: IGROV-1
K562 = system: K562
M14 = system: M14
MCF7 = system: MCF7
MDA-MB-435 = system: MDA-MB-435
MOLT-4 = system: MOLT-4
Malme-3M = system: Malme-3M
NCI-H23 = system: NCI-H23
NCI-H460 = system: NCI-H460
NCI/ADR-RES = system: NCI/ADR-RES
OVCAR-4 = system: OVCAR-4
OVCAR-5 = system: OVCAR-5
RPMI-8226 = system: RPMI-8226
RXF 393 = system: RXF 393
SF-268 = system: SF-268
SK-MEL-28 = system: SK-MEL-28
SK-MEL-2 = system: SK-MEL-2
SK-MEL-5 = system: SK-MEL-5
SK-OV-3 = system: SK-OV-3
SNB-75 = system: SNB-75
SR = system: SR
SW-620 = system: SW-620
T47D = system: T47D
U-251 = system: U-251
UACC-62 = system: UACC-62

Measured: GI50

COc1ccc(-c2coc3cc(O)cc(O)c3c2=O)cc1 [BIOCHANIN]
inactive: 786-0 > 10 µM | A549 > 10 µM | ACHN > 10 µM | CAKI-1 > 10 µM | CCRF-CEM > 10 µM | COLO 205 > 10 µM | HL-60 > 10 µM | HOP-62 > 10 µM | IGROV-1 > 10 µM | K562 > 10 µM | M14 > 10 µM | MCF7 > 10 µM | MDA-MB-435 > 10 µM | MOLT-4 > 10 µM | Malme-3M > 10 µM | NCI-H23 > 10 µM | NCI-H460 > 10 µM | NCI/ADR-RES > 10 µM | OVCAR-4 > 10 µM | OVCAR-5 > 10 µM | RPMI-8226 > 10 µM | RXF 393 > 10 µM | SF-268 > 10 µM | SK-MEL-28 > 10 µM | SK-MEL-2 > 10 µM | SK-MEL-5 > 10 µM | SK-OV-3 > 10 µM | SNB-75 > 10 µM | SR > 10 µM | SW-620 > 10 µM | T47D > 10 µM | U-251 > 10 µM | UACC-62 > 10 µM
